According to patent US20250155433A1, “FLUORESCENT SENSORS FOR DETECTION OF SIDEROPHORES AND OTHER MOLECULES PRODUCED BY BACTERIAL PATHOGENS” (Kansas State University Research Foundation, priority 2021, published 2025):
Where two headings read alike, the source gives them in different places. *1 amine or outer side, *2 acyl side, *3 side chain or, on linkers, in order; H or OH if unused. Where a SMILES comes first, the peptide text is derived from it. Bridges are numbered along the chain shown (N, C = ends). [ ]: non-standard residue; d: D form. X1 = O=C([C@@H]1CCN=C2C(N[*:1])=Cc3cc(O)c(O)cc3N21)[*:2]; Orn(N5-OH,N5-Ac) = CC(=O)N(O)CCC[C@H](N)C(=O)O; X2 = O=CN(O)CCC[C@H](N[*:1])C(=O)[*:2]; Suc = O=C(CCC(=O)[*:2])[*:1]

Assays:
KpnFepA2380 = test: Fluorescence quenching binding to KpnFepA2380-FM sensor; parameters: species or system Klebsiella pneumoniae; details: ferric complexes; Cys residue T255C, FM-labeled; NB = no binding; read-out: Affinity (KD) of sensor KpnFepA 2380
Method: (§1) Fluorescence modifications. For modifications with maleimide fluorophores, we inoculated E. coli strains OKN3, OKN13, OKN359 or OKN1359, harboring plasmids that encoded a Cys mutant LGP, from frozen stocks into LB, grew them overnight and sub-cultured at 1% into iron-deficient MOPS minimal media, with shaking (200 rpm) at 37° C. for 10-12 h, until late exponential phase. After collecting the cells by centrifugation at 7500×g for 15 min, and washing with 50 mM NaHPO4, pH 6.7, we labeled the Cys-mutant LGP with 5 μM FM in 50 mM NaHPO4, pH 6.7 for 15 min at 37° C. FM. We terminated the labeling reactions with 100 μM β-mercaptoethanol. […] After electrophoresis, we first visualized the fluorescence labeling on a Typhoon 8600 Biomolecular Scanner (GE/Amersham), and then stained the gels with Coomassie blue R (153).
(§2) Fluorescence spectroscopic binding determinations. We observed fluorophore-labeled cells in an SLM AMINCO 8100 fluorescence spectrometer, upgraded with an OLIS operating system and software (OLIS SpectralWorks, OLIS Inc., Bogart, GA), to control its shutters, polarizers and data collection. We also utilized an OLIS Clarity fluorescence spectrometer for fluorescence assays. […] We performed each measurement in triplicate and calculated the mean value of F/F0 at each ligand concentration. […]

CRE/ESKAPE pathogens = test: Decoy sensor measurements of metal complex uptake by bacteria; type: cell-based
Text: Fluorescence spectroscopic uptake measurements. We employed FD sensors to monitor TonB-dependent uptake of various siderophores by bacterial pathogens. In the fluorescence spectroscopic uptake studies E. coli OKN13 (ΔtonB, ΔfepA) or OKN1359 (ΔtonB, Δfiu, ΔfepA, Δcir) were host strains for pITS23 derivatives carrying single Cys mutants of an LGP of interest. The FLGP were decoy sensors that monitored ferric siderophore uptake by test strains. For each assay we used 10^7 sensor cells (e.g., OKN13/pFepA-FM (53)) in a 2 mL quartz cuvette containing PBS+0.2% glucose at 37° C. After recording fluorescence intensity for 100 seconds, we added an iron complex (e.g., FeEnt) at a final concentration of ˜10 nM. After incubating the sample for 100 seconds, during which time fluorescence was quenched (e.g., ˜60% quenching for EcoFepA_A698C-FM), we added 0.5-2×10^7 cells of the test strain (E. coli MG1655, K. pneumoniae Kp52.145, A. baumannii 17978, P. aeruginosa PA01, E. cloacae) and monitored the time-course of fluorescence emissions at 520 nm for 15-40 minutes, with stirring.

PaeFpvA = target: T1, PaeFpvA (Pseudomonas aeruginosa, UniProt P48632, T660C); test: Fluorescence quenching binding to PaeFpvA-FM sensor; details: secondary ligands
T1 construct: expressed in transfected cells; host or cells: E. coli OKN3/OKN13/OKN359/OKN1359 carrying a pITS23 derivative
Method: as §1, §2

KpnIroN = KpnIroN (Klebsiella pneumoniae, UniProt A0ACD7U953, T234C); test: Fluorescence quenching binding to KpnIroN-FM sensor; details: read-out: Affinity (KD) of sensor KpnIroN; ferric complexes; Cys residue T210C, FM-labeled; NB = no binding
Method: as §1, §2

AbaPiuA = AbaPiuA (Acinetobacter baumannii, UniProt D0CAH3, S724C); test: Fluorescence quenching binding to AbaPiuA-FM sensor
Method: as §1, with “β-mercaptoethanol. After collecting the fluoresceinated cells by centrifugation at 7500×g for 15 min, and washing with 50 mM NaHPO4, pH 6.7, we re-suspended them in PBS plus 0.2% glucose. We either immediately used the labeled cells in spectroscopic experiments, or rested them on ice (up to 24 h), or added glycerol to 15% and stored them (indefinitely) as 1 mL aliquots at −70° C.” for “β-mercaptoethanol.”
(§3) Fluorescence spectroscopic binding determinations. We observed fluorophore-labeled cells in an SLM AMINCO 8100 fluorescence spectrometer, upgraded with an OLIS operating system and software (OLIS SpectralWorks, OLIS Inc., Bogart, GA), to control its shutters, polarizers and data collection. We also utilized an OLIS Clarity fluorescence spectrometer for fluorescence assays. For binding determinations we deposited 2.5×10^7 labeled cells in a quartz cuvette (final volume, 2 mL) with stirring at 37° C., measured the initial fluorescence (F0), and then added increasing concentrations of an iron complex while monitoring the quenching of fluorescence emissions (F) at 520 nm. We performed each measurement in triplicate and calculated the mean value of F/F0 at each ligand concentration. […]
(§4) Table 1 lists KD values from analysis of fluorescence quenching with ferric or apo (parenthetic values) siderophores or porphyrins. […]

AbaBauA = AbaBauA (Acinetobacter baumannii, UniProt Q76HJ9, S407C); test: Fluorescence quenching binding to AbaBauA-FM sensor
Method: as §1, §2

EcoCir = target: T2, EcoCir (Escherichia coli, UniProt P17315, G512C); test: biochemical; type: binding
T2 construct: expressed in transfected cells; host or cells: E. coli OKN3/OKN13/OKN359/OKN1359 carrying a pITS23 derivative
Method: (§5) Fluorescence modifications. For modifications with maleimide fluorophores, we inoculated E. coli strains OKN3, OKN13, OKN359 or OKN1359, harboring plasmids that encoded a Cys mutant LGP, from frozen stocks into LB, grew them overnight and sub-cultured at 1% into iron-deficient MOPS minimal media, with shaking (200 rpm) at 37° C. for 10-12 h, until late exponential phase. After collecting the cells by centrifugation at 7500×g for 15 min, and washing with 50 mM NaHPO4, pH 6.7, we labeled the Cys-mutant LGP with 5 μM FM in 50 mM NaHPO4, pH 6.7 for 15 min at 37° C. FM. We terminated the labeling reactions with 100 μM β-mercaptoethanol. After collecting the fluoresceinated cells by centrifugation at 7500×g for 15 min, and washing with 50 mM NaHPO4, pH 6.7, we re-suspended them in PBS plus 0.2% glucose. We either immediately used the labeled cells in spectroscopic experiments, or rested them on ice (up to 24 h), or added glycerol to 15% and stored them (indefinitely) as 1 mL aliquots at −70° C. In the latter case, after thawing the labeled cells we pelleted them by centrifugation in a microfuge, washed them once with and re-suspended them in PBS containing 0.2% glucose. Lastly, for evaluation of protein expression or the extent of FM-labeling we solubilized aliquots of the cell suspensions with sample buffer, and subjected them to SDS-PAGE. After electrophoresis, we first visualized the fluorescence labeling on a Typhoon 8600 Biomolecular Scanner (GE/Amersham), and then stained the gels with Coomassie blue R (153).
(§6) Fluorescence spectroscopic binding determinations. We observed fluorophore-labeled cells in an SLM AMINCO 8100 fluorescence spectrometer, upgraded with an OLIS operating system and software (OLIS SpectralWorks, OLIS Inc., Bogart, GA), to control its shutters, polarizers and data collection. We also utilized an OLIS Clarity fluorescence spectrometer for fluorescence assays. For binding determinations we deposited 2.5×10^7 labeled cells in a quartz cuvette (final volume, 2 mL) with stirring at 37° C., measured the initial fluorescence (F0), and then added increasing concentrations of an iron complex while monitoring the quenching of fluorescence emissions (F) at 520 nm. We performed each measurement in triplicate and calculated the mean value of F/F0 at each ligand concentration. We plotted 1−F/F0 vs [ligand] and analyzed the data by the 1-site binding model of Grafit 6.0.12 (Erithacus Ltd. West Sussex, UK), that fits data to a single site saturation curve, where the amount of ligand bound is plotted as a function of the amount free:
(§7) These plots yielded KD values for each of the receptor-ligand interactions, with associated standard errors.
(§8) Table 1 lists KD values from analysis of fluorescence quenching with ferric or apo (parenthetic values) siderophores or porphyrins. For each determination, we measured the extent of fluorescence quenching of an FLGP, when exposed to sequentially increasing concentrations of the listed metal complexes, as plotted in FIGS. 2-4. We performed each experiment 2 or 3 times. The tabulated KD values are from single, representative experiments, in which we collected each data point in triplicate, plotted F/F0 vs [ligand] for each quenching titration, and fitted the curves to a single site binding model using Grafit 6.012 (Erithacus Ltd, […], UK).

EcoFiu = target: T3, EcoFiu (Escherichia coli, UniProt P75780, A694C); test: biochemical; type: binding
T3 construct: expressed in transfected cells; host or cells: E. coli OKN3/OKN13/OKN359/OKN1359 carrying a pITS23 derivative
Method: as §5, §6, §7, §8

AbaPirA = target: T4, AbaPirA (Acinetobacter baumannii, UniProt D0C8V9); details: read-out: Affinity (KD) of sensor AbaPirA; ferric complexes; Cys residue S328C, FM-labeled; NB = no binding
T4 construct: fused on or other part: EcoFepA signal peptide in place of its own (cleaved on export); fluorescein maleimide on the engineered Cys
Method: For modifications with maleimide fluorophores, we inoculated E. coli strains OKN3, OKN13, OKN359 or OKN1359, harboring plasmids that encoded a Cys mutant LGP, from frozen stocks into LB, grew them overnight and sub-cultured at 1% into iron-deficient MOPS minimal media, with shaking (200 rpm) at 37° C. for 10-12 h, until late exponential phase. After collecting the cells by centrifugation at 7500×g for 15 min, and washing with 50 mM NaHPO4, pH 6.7, we labeled the Cys-mutant LGP with 5 μM FM in 50 mM NaHPO4, pH 6.7 for 15 min at 37° C. […] We terminated the labeling reactions with 100 μM β-mercaptoethanol. […]
We also utilized an OLIS Clarity fluorescence spectrometer for fluorescence assays. […] We performed each measurement in triplicate and calculated the mean value of F/F0 at each ligand concentration. We plotted 1−F/F0 vs [ligand] and analyzed the data by the 1-site binding model of Grafit 6.0.12 (Erithacus Ltd. West Sussex, UK), that fits data to a single site saturation curve, where the amount of ligand bound is plotted as a function of the amount free:
For each determination, we measured the extent of fluorescence quenching of an FLGP, when exposed to sequentially increasing concentrations of the listed metal complexes, as plotted in FIGS. 2-4. […]

EcoIutA = target: T5, EcoIutA (Escherichia coli, UniProt P14542, T573C); test: Fluorescence quenching binding to EcoIutA-FM sensor; details: other ferric hydroxamates
T5 construct: expressed in transfected cells; host or cells: E. coli OKN3/OKN13/OKN359/OKN1359 carrying a pITS23 derivative
Method: as §5
as §6, with “free: […]” for “free:”
as §4

EcoFhuA = EcoFhuA (Escherichia coli, UniProt P06971); test: Fluorescence quenching binding to EcoFhuA-FM sensor
Method: as §5
as §6, with “free: […]” for “free:”
as §4

KpnFyuA = test: Fluorescence quenching binding to KpnFyuA-FM sensor; parameters: species or system Klebsiella pneumoniae
Method: as §5, with “In the latter case, after thawing the labeled cells we pelleted them by centrifugation in a microfuge, washed them once with and re-suspended them in PBS containing 0.2% glucose. Lastly, for evaluation of protein expression or the extent of FM-labeling we solubilized aliquots of the cell suspensions with sample buffer, and subjected them to SDS-PAGE.” left out
as §3, §4

[1] = target: T6, HsaSCN (human siderocalin) (Homo sapiens, UniProt P80188, Q148C); test: Fluorescence quenching binding to purified HsaSCN-FM sensor
T6 construct: adds a 6H-tag at either the N- or C-termini of the mature proteins; 6-His (N); made in house; host or cells: E. coli BL21 (pET28), IPTG-induced; purified on Talon Superflow

## O=C(N[C@H]1COC(=O)[C@@H](NC(=O)c2cccc([O-])c2[O-])COC(=O)[C@@H](NC(=O)c2cccc([O-])c2[O-])COC1=O)c1cccc([O-])c1[O-].[Fe+3] [FeEnt, ferric enterobactin]
KpnFepA2380
  Kd: 12800 nM
CRE/ESKAPE pathogens; iron deficient Gram (−) bacteria with maximally expressed chromosomal FepA
  Transport rate: ~50 pMol/10^9 cells/min
PaeFpvA
  Binding by PaeFpvA: weakly bound

## CC(C)(O/N=C(\C(=O)N[C@@H]1C(=O)N2C(C(=O)[O-])=C(C[N+]3(CCNC(=O)c4ccc([O-])c([O-])c4Cl)CCCC3)CS[C@H]12)c1csc(N)n1)C(=O)[O-].[Fe+3] [FeFDC]
KpnIroN
  Kd: 580 nM
AbaPiuA
  Kd: 57000 nM
AbaBauA
  Kd: 181000 nM
EcoCir
  Kd: 60 nM
EcoFiu
  Kd: 540 nM
AbaPirA
  Kd: 4800 nM

## O=C(N[C@H]1COC(=O)[C@@H](NC(=O)c2cc([C@@H]3O[C@H](CO)[C@@H](O)[C@H](O)[C@H]3O)cc(O)c2[O-])COC(=O)[C@@H](NC(=O)c2cc([C@@H]3O[C@H](CO)[C@@H](O)[C@H](O)[C@H]3O)cc(O)c2[O-])COC1=O)c1cccc(O)c1[O-].[Fe+3] [FeGEnt]
AbaPiuA
  Binding by AbaPiuA: did not bind

## C[C@@H](O)[C@@H]1NC(=O)[C@H](CCCN([O-])C=O)NC(=O)[C@@H](NC(=O)[C@H](CCCN([O-])C=O)NC(=O)[C@@H](CO)NC(=O)[C@H](CCCNC(=N)N)NC(=O)[C@@H](CO)NC(=O)[C@@H]2CCN=C3C(NC(=O)CCC(=O)O)=Cc4cc(O)c([O-])cc4N32)CCCCNC(=O)[C@H]([C@@H](C)O)NC1=O.[Fe+3] [FePvd] (Suc-[X1][dS]R[dS][X2]K[X2]TT; lactam 6-C)
CRE/ESKAPE pathogens; decoy sensors in TonB-deficient E. coli, 37° C., strains grown in iron-deficient MOPS
  TonB-dependent uptake by test strains: exclusive transport of FePvd by P. aeruginosa

## CC(=O)N(O)CCCCCNC(=O)CCC(=O)N(O)CCCCCNC(=O)CCC(=O)N(O)CCCCCN.[Fe+3] [FxB]
EcoIutA
  Binding by IutA: did not measurably bind
EcoFhuA; read-out: Affinity (KD) of sensor EcoFhuA, ferric complexes, Cys residue D396C, FM-labeled, NB = no binding
  Kd: 100000 nM
KpnFyuA; ferric complexes, Cys residue S631C, FM-labeled, NB = no binding, read-out: Affinity (KD) of sensor KpnFyuA
  Kd: 277000 nM
KpnFyuA; secondary ligands
  Binding by KpnFyuA: weakly bound
[1]; read-out: Affinity (KD) of sensor HsaSCN, ferric complexes and porphyrins, Cys residue Q128C, FM-labeled purified protein, NB = no binding
  Kd: 175 nM
[1]; read-out: KD, HsaSCN-FM
  Kd: 180 nM

## CC(C)(C1=N[C@@](C)(C(=O)O)CS1)[C@H](O)[C@@H]1CSC([C@H]2CSC(c3ccccc3O)=N2)N1 (stereo partly shown) [Ybt, yersiniabactin]
KpnFyuA; apo (parenthetic value), S631C, read-out: Affinity (KD) of sensor KpnFyuA, apo siderophore
  Kd: 120 nM

## CC(=O)N(O)CCC[C@@H]1NC(=O)CNC(=O)CNC(=O)CNC(=O)[C@H](CCCN(O)C(C)=O)NC(=O)[C@H](CCCN(O)C(C)=O)NC1=O [apoFc] (cyclo(GGG[Orn(N5-OH,N5-Ac)][Orn(N5-OH,N5-Ac)][Orn(N5-OH,N5-Ac)]))
EcoFhuA; read-out: Affinity (KD) of sensor EcoFhuA, apo siderophore, apo (parenthetic value), D396C
  Kd: 200 nM
